Earlier results, collected in patent publication US9376416B2, “Composition containing scirpusin B, and process for producing composition containing scirpusin B” (MORINAGA & CO., LTD., priority 2010, dated 2016).

Key:
HIV = conditions: reported in Non-Patent Citation 1
α-amylase = conditions: reported in Non-Patent Citation 3 (mouse α-amylase)
xanthine oxidase = xanthine oxidase (Homo sapiens, UniProt P47989); conditions: reported in Non-Patent Citation 4
[1] = reported in Non-Patent Citation 2

xanthine oxidase, sequence (P47989 whole entry, species assumed): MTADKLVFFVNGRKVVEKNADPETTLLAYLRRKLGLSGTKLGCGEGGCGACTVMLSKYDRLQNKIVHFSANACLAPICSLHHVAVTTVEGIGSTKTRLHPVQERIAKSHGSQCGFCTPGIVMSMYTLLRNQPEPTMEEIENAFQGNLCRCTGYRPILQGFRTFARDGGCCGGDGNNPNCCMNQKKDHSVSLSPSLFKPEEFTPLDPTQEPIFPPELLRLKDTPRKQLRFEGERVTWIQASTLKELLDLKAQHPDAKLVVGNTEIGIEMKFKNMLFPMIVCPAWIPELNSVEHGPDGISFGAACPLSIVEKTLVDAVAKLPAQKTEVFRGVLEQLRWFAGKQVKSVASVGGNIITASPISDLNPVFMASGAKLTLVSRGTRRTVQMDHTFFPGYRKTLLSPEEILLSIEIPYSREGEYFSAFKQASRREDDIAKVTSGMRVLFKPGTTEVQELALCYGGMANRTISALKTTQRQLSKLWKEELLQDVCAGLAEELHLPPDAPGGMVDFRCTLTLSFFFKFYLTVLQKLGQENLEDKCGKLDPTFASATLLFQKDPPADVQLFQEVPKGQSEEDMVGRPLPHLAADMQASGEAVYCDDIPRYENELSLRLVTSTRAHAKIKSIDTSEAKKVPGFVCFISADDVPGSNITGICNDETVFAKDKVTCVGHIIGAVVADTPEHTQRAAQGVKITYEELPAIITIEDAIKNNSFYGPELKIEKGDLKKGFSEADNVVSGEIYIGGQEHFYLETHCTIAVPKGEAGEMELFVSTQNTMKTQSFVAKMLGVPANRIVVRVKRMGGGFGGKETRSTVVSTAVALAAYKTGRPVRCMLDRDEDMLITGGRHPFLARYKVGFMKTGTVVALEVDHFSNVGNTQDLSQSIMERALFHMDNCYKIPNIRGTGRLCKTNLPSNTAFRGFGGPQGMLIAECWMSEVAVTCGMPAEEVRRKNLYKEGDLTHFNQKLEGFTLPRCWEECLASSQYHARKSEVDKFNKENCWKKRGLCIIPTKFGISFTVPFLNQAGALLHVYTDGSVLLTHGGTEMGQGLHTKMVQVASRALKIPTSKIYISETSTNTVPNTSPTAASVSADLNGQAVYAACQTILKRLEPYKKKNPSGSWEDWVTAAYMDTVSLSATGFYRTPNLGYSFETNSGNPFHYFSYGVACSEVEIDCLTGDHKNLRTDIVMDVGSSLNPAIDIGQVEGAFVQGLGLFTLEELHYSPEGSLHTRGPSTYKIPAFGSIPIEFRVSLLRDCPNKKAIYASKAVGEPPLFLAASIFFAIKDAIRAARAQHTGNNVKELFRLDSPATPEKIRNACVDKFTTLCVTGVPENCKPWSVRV

For `Oc1cc(O)cc(C2c3c(/C=C/c4ccc(O)c(O)c4)cc(O)cc3OC2c2ccc(O)c(O)c2)c1` (stereo not shown) [scirpusin B], the anti-HIV activity (HIV) is listed as “has anti-HIV activity”, the “α-amylase activity inhibitory activity” value (α-amylase) is listed as “has α-amylase activity inhibitory activity” and the “xanthine oxidase inhibitory activity” value (xanthine oxidase) is listed as “has xanthine oxidase inhibitory activity”. For the same compound, the “superoxide anion removal activity” value [1] was “has superoxide anion removal activity”.
